From patent publication US20070254853A1, “Compositions and Methods for Promotion of Wound Healing” (BOARD OF REGENTS, THE UNIVERSITY OF TEXAS SYSTEM, priority 2006, published 2007)

Legend:
[1] = system: 8 mm full thickness dorsal skin punch wound; assay: Sirolimus dose response on healing of a full thickness skin punch wound; assay type: in vivo, Balb/c mice
Description: Sirolimus is an effective immunosuppressant that has been associated with delayed wound healing. On a full thickness skin murine model of immunosuppression and decreased wound healing, the Sirolimus dose that delayed wound healing was first determined.
Methods: For 2 weeks Balb/c mice were gavage-fed saline, 4 mg/kg, 8 mg/kg or 12 mg/kg Sirolimus (10 per group). After drug loading, an 8 mm in diameter full thickness dorsal skin punch wound was made in each mouse. Every second day digital pictures of the wound were taken and analyzed. After determining the effective Sirolimus dose that causes decreased wound healing and immunosuppression, 40 Balb/c mice were gavaged with 8 mg/kg of Sirolimus every other day. After establishing the punch wounds, the mono and dinucleotides were applied topically daily. The topical treatment was applied using the following formulations (10 mice per group): a mixture of mono and dinucleotides derived from RNA in 0.025%, 0.25% and 2.5% concentrations and one group with KY jelly as control. Every second day a digital picture was taken and wound size measured. P2Y2 receptor expression was qualitatively assessed using immunohistology and receptor specific antibodies. T-test was used to compare the groups.

[2] = system: 4 mm punch wound on the dorsal surface; assay: Topical applications for wound healing in mice (4 mm punch wound, three dietary groups); assay type: in vivo, Balb/c mice; settings: 100 μM topical, in place of uracil; with or without CCM; four times over two weeks
Text: Balb/c mice were divided into three dietary groups (F=normal mouse chow; NF=nucleotide free mouse chow; and NFR=nucleotide free mouse chow supplemented with yeast RNA). Each group was fed before initiation of wounds. After 4 weeks of feeding, a 4 mm punch wound was created on the dorsal surface of each mouse, using a 4 mm biopsy punch. The wounds were coated with four different topical agents: (1) saline; (2) uracil ([…]); (3) saline+CCM; and (4) Uracil+CCM (CCM=crosslinked collagen mesh). CCM (“Collagen Permeable Membrane”) from Accurate Chemical & Scientific Corporation, Catalog No. YIC 152299. Four mm size circles were soaked with appropriate nucleotide or saline solution (4 mm punch wounds) and used to dress the wounds.
Twelve groups were formed from these combinations (n=3). Mice were continued on their respective diets. Wounds were observed visually and photographed at four different times during the period of two weeks. These studies were repeated using a 100 μM concentration of inosine in place of uracil as the topical agent.

SMILES | effect on wound healing ([1]; 4 mg/kg gavage for 2 weeks) | effect on wound healing ([1]; 8 mg/kg gavage for 2 weeks, day 4 and after) | effect on wound healing ([1]; 12 mg/kg gavage for 2 weeks, day 4 and after) | wound healing, wounds observed visually and photographed [2]
CO[C@H]1C[C@@H]2CC[C@@H](C)[C@@](O)(O2)C(=O)C(=O)N2CCCC[C@H]2C(=O)O[C@H]([C@H](C)C[C@@H]2CC[C@@H](O)[C@H](OC)C2)CC(=O)[C@H](C)/C=C(\C)[C@@H](O)[C@@H](OC)C(=O)[C@H](C)C[C@H](C)/C=C/C=C/C=C/1C [Sirolimus] | no effect on wound healing | delayed wound healing in a significant manner | delayed wound healing in a significant manner | –
OC[C@H]1O[C@@H](n2cnc3c(O)ncnc32)[C@H](O)[C@@H]1O [inosine] | – | – | – | no significant differences from that which was seen with the uracil
